Experiments:
Assay type in all cases: in vivo
[1] = tested on: Setaria faberi (SETFA); assay: Post-emergence biological efficacy, glasshouse pot test; settings: evaluated after 13 days, 100=total damage, 0=no damage, read-out: Percentage damage caused to weed species, post-emergence, SETFA; for pest or weed control at 1000 g/ha: 312 h, 1,000 g/ha
Summary of the method: (§1)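 Weeds grown 8 days in glasshouse pots (24/16 °C, 14 h light, 65% humidity) were sprayed with compound in acetone/water plus 0.5% Tween 20 at 1000 or 250 g/ha. Damage was scored 13 days later on a 0–100 scale (100 = total damage).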

[2] = tested on: Ipomea hederaceae (IPOHE); assay: as above; settings: Ipomoea hederacea, evaluated after 13 days, 100=total damage, 0=no damage, read-out: Percentage damage caused to weed species, post-emergence, IPOHE; for pest or weed control at 1000 g/ha: 312 h, 1,000 g/ha
Summary of the method: as §1

[3] = tested on: Solanum nigrum (SOLNI); assay: as above; settings: evaluated after 13 days, 100=total damage, 0=no damage, read-out: Percentage damage caused to weed species, post-emergence, SOLNI; for pest or weed control at 1000 g/ha: 312 h, 1,000 g/ha
Summary of the method: as §1

[4] = tested on: Echinochloa crus-galli (ECHCG); assay: as above; settings: evaluated after 13 days, 100=total damage, 0=no damage, read-out: Percentage damage caused to weed species, post-emergence, ECHCG; for pest or weed control at 1000 g/ha: 312 h, 1,000 g/ha
Summary of the method: as §1

[5] = tested on: Alopecurus myosuroides (ALOMY); assay: as above; settings: evaluated after 13 days, 100=total damage, 0=no damage, read-out: Percentage damage caused to weed species, post-emergence, ALOMY; for pest or weed control at 1000 g/ha: 312 h, 1,000 g/ha
Summary of the method: as §1

[6] = tested on: Amaranthus retroflexus (AMARE); assay: as above; settings: evaluated after 13 days, 100=total damage, 0=no damage, read-out: Percentage damage caused to weed species, post-emergence, AMARE; for pest or weed control at 1000 g/ha: 312 h, 1,000 g/ha
Summary of the method: as §1

[7] = tested on: Setaria faberi (SETFA); assay: Pre-emergence biological efficacy, glasshouse pot test; settings: evaluated after 13 days, 100=total damage, 0=no damage, read-out: Percentage damage caused to weed species, pre-emergence, SETFA; for pest or weed control at 1000 g/ha: 312 h, 1,000 g/ha
Summary of the method: (§2)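 Damage ratings (0 no damage to 100 total damage) were taken 13 days after treatment. Compound had been applied at 1000 or 250 g/ha as an aqueous spray from acetone/water (50:50) with 0.5% Tween 20, one day after sowing in soil.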

[8] = tested on: Ipomea hederaceae (IPOHE); assay: as above; settings: Ipomoea hederacea, evaluated after 13 days, 100=total damage, 0=no damage, read-out: Percentage damage caused to weed species, pre-emergence, IPOHE; for pest or weed control at 1000 g/ha: 312 h, 1,000 g/ha
Summary of the method: as §2

[9] = tested on: Solanum nigrum (SOLNI); assay: as above; settings: evaluated after 13 days, 100=total damage, 0=no damage, read-out: Percentage damage caused to weed species, pre-emergence, SOLNI; for pest or weed control at 1000 g/ha: 312 h, 1,000 g/ha
Summary of the method: as §2

[10] = tested on: Echinochloa crus-galli (ECHCG); assay: as above; settings: evaluated after 13 days, 100=total damage, 0=no damage, read-out: Percentage damage caused to weed species, pre-emergence, ECHCG; for pest or weed control at 1000 g/ha: 312 h, 1,000 g/ha
Summary of the method: as §2

[11] = tested on: Alopecurus myosuroides (ALOMY); assay: as above; settings: evaluated after 13 days, 100=total damage, 0=no damage, read-out: Percentage damage caused to weed species, pre-emergence, ALOMY; for pest or weed control at 1000 g/ha: 312 h, 1,000 g/ha
Summary of the method: as §2

[12] = tested on: Amaranthus retroflexus (AMARE); assay: as above; settings: evaluated after 13 days, 100=total damage, 0=no damage, read-out: Percentage damage caused to weed species, pre-emergence, AMARE; for pest or weed control at 1000 g/ha: 312 h, 1,000 g/ha
Summary of the method: as §2

Row | SMILES | pest or weed control at 1000 g/ha [1] [%] | pest or weed control at 1000 g/ha [2] [%] | pest or weed control at 1000 g/ha [3] [%] | pest or weed control at 1000 g/ha [4] [%] | pest or weed control at 1000 g/ha [5] [%] | pest or weed control at 1000 g/ha [6] [%] | pest or weed control at 1000 g/ha [7] [%] | pest or weed control at 1000 g/ha [8] [%] | pest or weed control at 1000 g/ha [9] [%] | pest or weed control at 1000 g/ha [10] [%] | pest or weed control at 1000 g/ha [11] [%] | pest or weed control at 1000 g/ha [12] [%] | further results
1 | CCO/C=C\c1c(NCc2ccco2)cc(-c2ccc(Cl)c(OC)c2F)nc1C(=O)OC [Compound 26-463, (Z)-6-(4-chloro-2-fluoro-3-methoxy-phenyl)-3-(2-ethoxyethenyl)-4-[(furan-2-ylmethyl)-amino]-pyridine-2-carboxylic acid methyl ester] | 0 | 40 | 60 | 0 | 0 | 20 | 10 | 0 | 10 | 10 | 10 | 0 | –
2 | COC(=O)c1nc(Cl)cc(NCc2ccccn2)c1Cl [Compound 31-2, 3,6-Dichloro-4-(pyridin-2-ylmethylamino)-pyridine-2-carboxylic acid methyl ester] | 80 | 80 | 100 | 20 | 50 | 100 | 80 | 100 | 100 | 60 | 70 | 100 | –
3 | C=Cc1c(NCc2ncccc2Cl)cc(Cl)nc1C(=O)OC [Compound 32-12, 6-Chloro-4-[(3-chloro-pyridin-2-ylmethyl)-amino]-3-ethenyl-pyridine-2-carboxylic acid methyl ester] | 60 | 50 | 90 | 40 | 50 | 100 | 80 | 70 | 100 | 50 | 70 | 100 | –
4 | COC(=O)c1nc(Cl)cc(NCc2ncccc2Cl)c1Br [Compound 32-17, 3-Bromo-6-chloro-4-[(3-chloro-pyridin-2-ylmethyl)-amino]-pyridine-2-carboxylic acid methyl ester] | 50 | 50 | 90 | 20 | 20 | 80 | 0 | 80 | 80 | 0 | 10 | 90 | –
5 | COC(=O)c1nc(Cl)c(F)c(NCc2ncccc2Cl)c1Br [Compound 32-29, 3-Bromo-6-chloro-4-[(3-chloro-pyridin-2-ylmethyl)-amino]-5-fluoro-pyridine-2-carboxylic acid methyl ester] | – | – | – | – | – | – | – | – | – | – | – | – | pest or weed control at 250 g/ha ([1]; 312 h, 250 g/ha): 60%; pest or weed control at 250 g/ha ([2]; 312 h, 250 g/ha): 60%; pest or weed control at 250 g/ha ([3]; 312 h, 250 g/ha): 80%; pest or weed control at 250 g/ha ([4]; 312 h, 250 g/ha): 50%; pest or weed control at 250 g/ha ([5]; 312 h, 250 g/ha): 20%; pest or weed control at 250 g/ha ([6]; 312 h, 250 g/ha): 70%; pest or weed control at 250 g/ha ([7]; 312 h, 250 g/ha): 0%; pest or weed control at 250 g/ha ([8]; 312 h, 250 g/ha): 70%; pest or weed control at 250 g/ha ([9]; 312 h, 250 g/ha): 80%; pest or weed control at 250 g/ha ([10]; 312 h, 250 g/ha): 10%; pest or weed control at 250 g/ha ([11]; 312 h, 250 g/ha): 10%; pest or weed control at 250 g/ha ([12]; 312 h, 250 g/ha): 90%
6 | C=Cc1c(C(=O)OC)nc(Cl)c(Cl)c1NCc1ncccc1Cl [Compound 32-39, 4-[(3-Chloro-pyridin-2-ylmethyl)-amino]-5,6-dichloro-3-ethenyl-pyridine-2-carboxylic acid methyl ester] | 50 | 40 | 90 | 20 | 10 | 100 | 0 | 50 | 60 | 0 | 0 | 100 | –
7 | COC(=O)c1nc(Cl)c(Cl)c(NCc2ncccc2Cl)c1Br [Compound 32-41, 3-Bromo-4-[(3-chloro-pyridin-2-ylmethyl)-amino]-5,6-dichloro-pyridine-2-carboxylic acid methyl ester] | 60 | 70 | 90 | 20 | 20 | 90 | 0 | 80 | 80 | 0 | 0 | 90 | –
8 | COC(=O)c1nc(Cl)cc(NCc2ncccc2C)c1Cl [Compound 33-2, 3,6-Dichloro-4-[(3-methyl-pyridin-2-ylmethyl)-amino] pyridine-2-carboxylic acid methyl ester] | 70 | 80 | 100 | 60 | 60 | 100 | 80 | 100 | 100 | 50 | 60 | 100 | –
9 | C=Cc1c(NCc2ncccc2C)cc(Cl)nc1C(=O)OC [Compound 33-12, 6-Chloro-3-ethenyl-4-[(3-methyl-pyridin-2-ylmethyl)-amino]-pyridine-2-carboxylic acid methyl ester] | 90 | 70 | 90 | 80 | 80 | 100 | 80 | 100 | 100 | 80 | 70 | 100 | –

Source: US20120100990A1, “4 -AMINOPICOLINATES AND THEIR USE AS HERBICIDES” (SYNGENTA CROP PROTECTION LLC, priority 2009, published 2012)
